Assay: mn = molality of the nth substance listed, in mol/kg
Conditions: 101 kPa, Liquid; for viscosity: Capillary tube (Ostwald / Ubbelohde) method; for mass density: Vibrating tube method

Cc1c(N)cccc1N [2,6-diaminotoluene] + CCO
Conditions	mass density, 293.15 K [kg/m3]	mass density, 303.15 K [kg/m3]	mass density, 313.15 K [kg/m3]	mass density, 323.15 K [kg/m3]	mass density, 333.15 K [kg/m3]	viscosity, 293.15 K [mPa·s]	viscosity, 303.15 K [mPa·s]	viscosity, 313.15 K [mPa·s]	viscosity, 323.15 K [mPa·s]	viscosity, 333.15 K [mPa·s]
m1 = 0.0503	791.34	782.75	773.98	765.05	755.93	1.193	0.983	0.814	0.68	0.569
m1 = 0.1002	793.1	784.49	775.72	766.78	757.66	1.206	0.991	0.823	0.686	0.573
m1 = 0.1497	794.82	786.2	777.43	768.49	759.36	1.221	1.002	0.829	0.69	0.578
m1 = 0.1996	796.54	787.9	779.12	770.18	761.05	1.233	1.011	0.835	0.696	0.582
m1 = 0.2496	798.23	789.59	780.81	771.86	762.72	1.245	1.021	0.843	0.7	0.586
m1 = 0.2997	799.92	791.26	782.49	773.53	764.4	1.258	1.03	0.849	0.707	0.591
m1 = 0.3496	801.55	792.9	784.13	775.18	766.04	1.272	1.04	0.857	0.711	0.595
m1 = 0.3995	803.2	794.53	785.77	776.81	767.67	1.286	1.05	0.864	0.718	0.6
m1 = 0.4497	804.84	796.16	787.4	778.43	769.3	1.3	1.061	0.872	0.723	0.604
m1 = 0.4995	806.45	797.75	789	780.03	770.89	1.313	1.07	0.879	0.731	0.609
m1 = 0.5495	808.02	799.33	790.56	781.61	772.46	1.328	1.08	0.888	0.736	0.613
m1 = 0.5995	809.61	800.9	792.14	783.18	774.03	1.342	1.09	0.895	0.742	0.618
m1 = 0.6492	811.1	802.44	793.67	784.72	775.55	1.357	1.102	0.903	0.746	0.622
m1 = 0.6984	812.63	803.98	795.19	786.23	777.07	1.372	1.112	0.91	0.753	0.626
m1 = 0.7488	814.15	805.51	796.73	787.77	778.61	1.389	1.124	0.919	0.758	0.631
m1 = 0.7991	815.68	807.02	798.25	789.3	780.13	1.408	1.134	0.926	0.762	0.636

Reference: the NIST ThermoML archive (doi:10.1021/je400968v)
